Data as given in the supplement of paper PMC10011410.
± gives the standard deviation of the averaged measurements.

Columns and labels:
[1] = system: U-2 OS; assay: total intracellular glutathione (GSH + GSSG) relative to DMSO (% of control); higher = more glutathione; conditions: 24 h
Procedure: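 Total intracellular glutathione (GSH + GSSG) in U-2 OS cells by GSH/GSSG-Glo after 24 h compound treatment at 5, 10 and 20 uM (some at 40 and 80 uM), as percent of DMSO control. Five technical replicate plates, averaged.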

[2] = system: U-2 OS; assay: relative cell count vs DMSO (cell painting) (fraction of DMSO control); higher = more cells remaining (less cytotoxic); conditions: 24 h
In short: (§1)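 Cell painting used U-2 OS cells at about 1,500 per well in 384-well plates, treated by pin tool for 24 h at 37 °C, usually at six 2-fold concentrations from 20 μM to 625 nM. Cells were stained with MitoTracker, concanavalin A, phalloidin, wheat germ agglutinin, Hoechst and SYTO 14 and imaged on an Opera Phenix. Features were extracted with CellProfiler and normalized to DMSO cells on the same plate. The activity score is the Mahalanobis distance from DMSO wells; cell count is relative to DMSO wells. Values are means of four replicate plates.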

[3] = system: U-2 OS; assay: cell painting activity score (Mahalanobis distance from DMSO wells); higher = stronger morphological phenotype; conditions: 24 h
In short: as §1

[4] = system: U-2 OS; assay: cell viability (CellTiter-Glo) relative to DMSO (% of control); higher = more viable; conditions: 24 h
Procedure: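 Cell viability of U-2 OS cells by CellTiter-Glo after 24 h compound treatment at 5, 10 and 20 uM (some at 40 and 80 uM), measured in parallel with the glutathione assay, as percent of DMSO control. Five technical replicate plates, averaged.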

[5] = system: U-2 OS; assay: AUC of culture confluence over time (live-cell imaging) (AUC (confluence % x time)); higher = more confluent culture (less growth inhibition)
In short: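 Confluence of U-2 OS cells in F-12K medium with 10% FBS was tracked by live-cell imaging. Cells were seeded at 750 per well in 384-well plates and treated 24 h later by pin tool, with most compounds at 20, 10 and 5 μM and 0.2% DMSO. Cells were kept at 37 °C and imaged every 4 h for up to 60 h on an Incucyte S3 with a 10x objective. The value is the area under the confluence-versus-time curve.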

[6] = system: U-2 OS; assay: intracellular GSH:GSSG ratio (calculated); higher = more reduced glutathione pool; conditions: 24 h
Procedure: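 Intracellular glutathione in U-2 OS cells after 24 h compound treatment at 5, 10 and 20 uM (some at 40 and 80 uM). Total glutathione and GSSG were measured with the GSH/GSSG-Glo kit, and the GSH:GSSG ratio was calculated. Mean of five technical replicate plates.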

Row | SMILES | total intracellular glutathione ([1]; 5 µM) | total intracellular glutathione ([1]; 10 µM) | total intracellular glutathione ([1]; 20 µM) | relative cell count ([2]; 0.625 µM) | relative cell count ([2]; 1.25 µM) | relative cell count ([2]; 2.5 µM) | relative cell count ([2]; 5 µM) | relative cell count ([2]; 10 µM) | relative cell count ([2]; 20 µM) | cell painting activity score ([3]; 0.625 µM) | cell painting activity score ([3]; 1.25 µM) | cell painting activity score ([3]; 2.5 µM) | cell painting activity score ([3]; 5 µM) | cell painting activity score ([3]; 10 µM) | cell painting activity score ([3]; 20 µM) | cell viability ([4]; 5 µM) | cell viability ([4]; 10 µM) | cell viability ([4]; 20 µM) | AUC of culture confluence over time ([5]; 5 µM) | AUC of culture confluence over time ([5]; 10 µM) | AUC of culture confluence over time ([5]; 20 µM) | intracellular GSH:GSSG ratio ([6]; 5 µM) | intracellular GSH:GSSG ratio ([6]; 10 µM) | intracellular GSH:GSSG ratio ([6]; 20 µM) | AUC of culture confluence over time ([5]; 0.625 µM) | AUC of culture confluence over time ([5]; 1.25 µM) | AUC of culture confluence over time ([5]; 2.5 µM)
1 | O=C1C=CC(=O)N1c1ccccc1 | 114 ± 9.5 | 23.6 ± 7.2 | 14.3 ± 6.1 | 1.02 | 1.06 | 0.8 | 0.602 | 0.224 | 0.317 | 4.85 | 4.24 | 9.29 | 14.7 | 19.6 | 16.3 | 81.7 ± 12 | 14.3 ± 4.6 | 4.32 ± 3.1 | 13.1 | 14.2 | 13.5 | 20.1 | 4.06 | 17.8 | – | – | –
2 | O=S1(=O)C=Cc2ccccc21 | 138 ± 4 | 132 ± 8.3 | 141 ± 7.7 | 1.04 | 0.994 | 0.991 | 1.05 | 0.975 | 0.957 | 7.06 | 8.41 | 10.4 | 10.2 | 13.2 | 13.2 | 102 ± 5 | 97.3 ± 2.8 | 103 ± 5.8 | 53.2 | 50.3 | 36.8 | 19.9 | 14.6 | 13.5 | – | – | –
3 | C=CC(=O)Nc1cc2c(Nc3ccc(F)c(Cl)c3)ncnc2cc1OCCCN1CCOCC1 | 69.5 ± 4.6 | 11.2 ± 1.2 | 4.36 ± 0.66 | 0.407 | 0.133 | 0.0844 | 0.0662 | 0.0483 | 0.019 | 15.6 | 19.4 | 27.2 | 25.4 | 25.3 | 26.9 | 57.1 ± 4.1 | 6.54 ± 1.9 | 4.85 ± 1.7 | 19.1 | 13.7 | 9.96 | 7.51 | 1.96 | 0.352 | – | – | –
4 | C=CC(=O)N1CCC[C@@H](n2nc(-c3ccc(Oc4ccccc4)cc3)c3c(N)ncnc32)C1 | 89.1 ± 3.4 | 94.8 ± 4.3 | 85.1 ± 9.8 | 1.09 | 1.02 | 1.09 | 1.11 | 1.03 | 1.03 | 5.26 | 6.98 | 6.19 | 8.03 | 8.01 | 12.2 | 87.8 ± 1.4 | 87.6 ± 4 | 82 ± 3.9 | 37.7 | 27.5 | 20.6 | 21.3 | 20 | 13.5 | – | – | –
5 | C[C@@H]1C[C@H]2O[C@@H]2/C=C\C=C\C(=O)Cc2c(Cl)c(O)cc(O)c2C(=O)O1 | 87.8 ± 4.1 | 36 ± 6.1 | 12.9 ± 0.62 | 0.852 ± 0.039 | 0.731 ± 0.047 | 0.597 ± 0.06 | 0.466 ± 0.042 | 0.419 ± 0.033 | 0.388 ± 0.018 | 14.6 ± 1.8 | 14.1 ± 1.8 | 15.2 ± 1.9 | 16.2 ± 1.9 | 16.1 ± 1.1 | 15.3 ± 0.8 | 86.8 ± 3 | 24.7 ± 2.7 | 4.77 ± 0.71 | 19.9 | 21.3 | 20.2 | 27 | 7.74 | 3.63 | 57.8 | 48.6 | 46.8
6 | Cc1onc(C(=O)N2CCN(C(c3ccc(Cl)cc3)c3ccc(Cl)cc3)CC2)c1[N+](=O)[O-] | 107.3 ± 0.95 | 110 ± 4.7 | 107 ± 4.3 | 0.903 | 0.945 | 0.883 | 0.853 | 0.9 | 0.81 | 8.18 | 8.49 | 10.6 | 9.26 | 11.2 | 11.3 | 88.8 ± 4.4 | 92.4 ± 4.1 | 84.1 ± 6.2 | 31.1 | 29.2 | 28.8 | 21 | 19.2 | 16.3 | – | – | –
7 | CC[C@]1(O)C[C@@H]2CN(CCc3c([nH]c4ccccc34)[C@@](C(=O)OC)(c3cc4c(cc3OC)N(C)[C@H]3[C@@](O)(C(=O)OC)[C@H](OC(C)=O)[C@]5(CC)C=CCN6CC[C@]43[C@@H]65)C2)C1 | 60.6 ± 2.1 | 61.6 ± 7.3 | 60.5 ± 3.1 | 0.236 | 0.246 | 0.221 | 0.223 | 0.24 | 0.255 | 27.2 | 24.9 | 24.9 | 24.2 | 24.4 | 24.4 | 58.9 ± 5.4 | 57.8 ± 8.9 | 57.7 ± 2.6 | 18.2 | 17.6 | 20 | 2.94 | 2.94 | 2.96 | – | – | –
8 | CCC(=O)N1CCN(c2ccc(-n3c(=O)ccc4cnc5ccc(-c6cnc7ccccc7c6)cc5c43)cc2C(F)(F)F)CC1 | 58.8 ± 4.2 | 58.6 ± 4.8 | 64 ± 3.3 | 0.752 | 0.716 | 0.68 | 0.714 | 0.683 | 0.656 | 12.8 | 12.6 | 12.4 | 13.4 | 13.2 | 14.2 | 66.4 ± 3.2 | 66.8 ± 3.4 | 61.4 ± 4 | 26.9 | 27.2 | 26.1 | 16.1 | 15 | 13.4 | – | – | –
